Active and inactive are the calls of the source. The rule behind the calls is not given here.
Key:
Jurkat [1] = experiment: Antiproliferative activity against human Jurkat cells assessed as inhibition of cell growth measured after 72 hrs by XTT assay; assay type: functional, cell-based
BXPC-3 = experiment: Antiproliferative activity against human BXPC-3 cells assessed as inhibition of cell growth measured after 72 hrs by XTT assay; assay type: functional, cell-based; details: BXPC-3, 72 h
PANC-1 [2] = experiment: Antiproliferative activity against human PANC-1 cells assessed as inhibition of cell growth measured after 72 hrs by XTT assay; assay type: functional, cell-based; details: PANC-1, 72 h
MIA PaCa-2 = experiment: Antiproliferative activity against human MIA PaCa-2 cells assessed as inhibition of cell growth measured after 72 hrs by XTT assay; assay type: functional, cell-based; details: MIA PaCa-2, 72 h
Jurkat [3] = experiment: Induction of apoptosis in human Jurkat cells assessed as cell death at upto 1000 nM measured after 96 hrs by annexin V and 7AAD double staining based flow cytometry analysis; assay type: functional
Jurkat [4] = experiment: Induction of apoptosis in human Jurkat cells assessed as caspase-3 cleavage at 10 nM measured after 96 hrs by flow cytometry analysis; assay type: functional, cell-based
Jurkat [5] = experiment: Antiproliferative activity against human Jurkat cells assessed as reduction in cell viability at 10 nM incubated for 96 hrs in presence of NMN by annexin V and 7AAD double staining based flow cytometry analysis; assay type: functional
Jurkat [6] = experiment: Antiproliferative activity against human Jurkat cells assessed as reduction in cell viability at 10 nM incubated for 96 hrs in presence of NAD+ by annexin V and 7AAD double staining based flow cytometry analysis; assay type: functional
PANC-1 [7] = experiment: Cytotoxicity against human PANC-1 cells assessed as reduction in cell viability measured after 72 hrs by resazurin staining based fluorescent plate reader; assay type: functional; details: PANC-1, 72 h

| SMILES | IC50 (Jurkat [1]) | IC50 (MIA PaCa-2) | also measured |
| --- | --- | --- | --- |
| O=C(/C=C/c1ccc[n+]([O-])c1)NCCCCC1CCN(C(=O)c2ccccc2)CC1 | 100 nM | – | – |
| O=C(/C=C/c1cccnc1)NCCCCC1CCN(C(=O)C2CCCOC2)CC1 (centres undefined) | 35 nM | – | – |
| O=C(/C=C/c1cccnc1)NCC(O)CCC1CCN(C(=O)c2ccccc2)CC1 (centres undefined) | 3500 nM | – | – |
| O=C(/C=C/c1ccc(Cl)nc1Cl)NCCCCC1CCN(C(=O)c2ccccc2)CC1 | 2500 nM | – | – |
| O=C(/C=C/c1cccnc1)NCCCCC1CCN(C(=O)C2CCCO2)CC1 (centres undefined) | 30 nM | – | – |
| O=C(/C=C/c1cccnc1)NCCCCC1CCN(C(=O)C2CCCCC2)CC1 | 32 nM | – | – |
| COc1cccc(OC)c1C(=O)N1CCC(OCCCNC(=O)/C=C/c2cccnc2)CC1 | 850 nM | – | – |
| O=C(/C=C/c1cccnc1)NCCC1CCN(C(=O)c2ccccc2)CC1 | > 200 nM | – | – |
| O=C(/C=C/c1cccnc1)NCCCCC1CCN(C(=O)CCc2ccccc2)CC1 | 28 nM | – | – |
| COc1cc(C=O)cc(OC)c1C(=O)N1CCC(CCCCNC(=O)/C=C/c2cccnc2F)CC1 | 0.8 nM | 3 nM | IC50 (BXPC-3): 53 nM; IC50 (PANC-1 [2]): 16 nM |
| COc1cccc(OC)c1C(=O)N1CCC(CCCCNC(=O)/C=C/c2cccnc2)CC1 | 0.8 nM | 0.5 nM | Activity (Jurkat [3]): Active; Activity (Jurkat [4]): Active; Activity (Jurkat [5]): inactive; IC50 (BXPC-3): 0.004 nM; IC50 (PANC-1 [2]): 0.6 nM; Activity (Jurkat [6]): inactive |
| COc1cccc(OC)c1C(=O)N1CCC(CCCCNC(=O)/C=C/c2ccnnc2)CC1 | 35 nM | 25 nM | IC50 (BXPC-3): 15.6 nM |
| O=C(/C=C/c1cccnc1)NCCCCC1CCN(C(=O)c2ccc(F)cc2)CC1 | 10 nM | – | – |
| COc1ccccc1C(=O)N1CCC(CCCCNC(=O)/C=C/c2cccnc2)CC1 | 2.3 nM | 1 nM | Activity (Jurkat [3]): Active; Activity (Jurkat [4]): Active; Activity (Jurkat [5]): inactive; IC50 (BXPC-3): 0.5 nM; IC50 (PANC-1 [2]): 0.08 nM; Activity (Jurkat [6]): inactive |
| COc1cccc(C(=O)N2CCC(CCCCNC(=O)/C=C/c3cccnc3)CC2)c1 | 9 nM | – | – |
| COc1ccc(C(=O)N2CCC(CCCCNC(=O)/C=C/c3cccnc3)CC2)cc1 | 100 nM | – | – |
| O=C(/C=C/c1cccnc1)NCCCCC1CCN(C(=O)c2ccccc2O)CC1 | 5.8 nM | 3.9 nM | IC50 (BXPC-3): 8.1 nM; IC50 (PANC-1 [2]): 1.3 nM |
| COc1ccc(C(=O)N2CCC(CCCCNC(=O)/C=C/c3cccnc3)CC2)cc1OC | 32 nM | – | – |
| O=Cc1ccc(C(=O)N2CCC(CCCCNC(=O)/C=C/c3cccnc3)CC2)cc1 | 20 nM | – | – |
| O=C(/C=C/c1cccnc1)NC/C=C/CC1CCN(C(=O)c2ccccc2)CC1 | 10 nM | 13 nM | IC50 (BXPC-3): 34 nM; IC50 (PANC-1 [2]): 8.6 nM |
| COc1cc(C=O)cc(OC)c1C(=O)N1CCC(CCCCNC(=O)/C=C/c2cccnc2)CC1 | 0.4 nM | 0.25 nM | IC50 (BXPC-3): 13 nM; IC50 (PANC-1 [2]): 1.9 nM |
| COc1cccc(OC)c1C(=O)N1CCC(C/C=C/CNC(=O)/C=C/c2cccnc2)CC1 | 5 nM | 2.7 nM | IC50 (BXPC-3): 0.4 nM; IC50 (PANC-1 [2]): 2.3 nM |
| O=C(/C=C/c1cccnc1)NCCCCC1CCN(S(=O)(=O)c2ccccc2)CC1 | 16 nM | – | – |
| COc1cccc(OC)c1C(=O)N1CCC(CCCCNC(=O)/C=C/c2cnccn2)CC1 | > 1000 nM | – | – |
| O=C(/C=C/c1ccc(F)nc1F)NCCCCC1CCN(C(=O)c2ccccc2)CC1 | 6.7 nM | 13.5 nM | IC50 (BXPC-3): 31 nM; IC50 (PANC-1 [2]): 14 nM |
| O=C(NCCCc1cn[nH]c1)c1ccc(-c2ccncc2)c(C#Cc2ccc(F)cc2)c1 | – | – | EC50 (PANC-1 [7]): 3.5 nM |
| COc1cccc(OC)c1C(=O)N1CCC(CCCCNC(=O)/C=C/c2cccnc2F)CC1 | 6.5 nM | 24 nM | IC50 (PANC-1 [2]): 5.7 nM |
| O=Cc1cccc(C(=O)N2CCC(CCCCNC(=O)/C=C/c3cccnc3)CC2)c1 | 40 nM | – | – |

| SMILES | IC50 (Jurkat [1]) | IC50 (MIA PaCa-2) | also measured |
| --- | --- | --- | --- |
| O=C(/C=C/c1cccnc1F)NCCCCC1CCN(C(=O)c2ccccc2)CC1 | 2.3 nM | 4 nM | – |
| O=C(/C=C/c1cccnc1)NCC1OC1CC1CCN(C(=O)c2ccccc2)CC1 (centres undefined) | 2500 nM | – | – |
| CC(=O)c1ccc(C(=O)N2CCC(CCCCNC(=O)/C=C/c3cccnc3)CC2)cc1 | 800 nM | – | – |
| COc1ccc(C(=O)N2CCC(CCCCNC(=O)/C=C/c3cccnc3)CC2)c(OC)c1OC | 28 nM | – | – |
| O=C(/C=C/c1cccnc1)NCCCOC1CCN(C(=O)c2ccccc2)CC1 | 800 nM | – | – |
| O=C(/C=C/c1ccnnc1)NCCCCC1CCN(C(=O)c2ccccc2)CC1 | 33 nM | 69 nM | IC50 (BXPC-3): 19.4 nM |
| O=C(/C=C/c1cccnc1)NCCCCC1CCN(C(=O)C2CCC(=O)N2)CC1 (centres undefined) | 350 nM | – | – |
| O=C(/C=C/c1cccnc1)NCCCCC1CCN(C(=O)/C=C/c2ccccc2)CC1 | 36 nM | – | – |
| O=C(/C=C/c1cnccn1)NCCCCC1CCN(C(=O)c2ccccc2)CC1 | > 1000 nM | – | – |
| COc1ccc(C(=O)N2CCC(CCCCNC(=O)/C=C/c3cccnc3)CC2)c(OC)c1 | 8.4 nM | 4 nM | IC50 (BXPC-3): 24 nM; IC50 (PANC-1 [2]): 0.2 nM |
| O=C(/C=C/c1cccnc1)NC/C=C/C1CCN(C(=O)c2ccccc2)CC1 | 100 nM | – | – |
| CC(=O)c1cccc(C(=O)N2CCC(CCCCNC(=O)/C=C/c3cccnc3)CC2)c1 | 850 nM | – | – |
| O=C(/C=C/c1cccnc1)NCCCCC1CCN(C(=O)c2ccc([N+](=O)[O-])cc2)CC1 | 68 nM | – | – |
| O=C(/C=C/c1cccnc1Cl)NCCCCC1CCN(C(=O)c2ccccc2)CC1 | 2500 nM | – | – |
| Cc1ccc(S(=O)(=O)N2CCC(CCCCNC(=O)/C=C/c3cccnc3)CC2)cc1 | 400 nM | – | – |
| O=C(/C=C/c1cccnc1)NCCCCC1CCN(C(=O)C2CCOCC2)CC1 | 30 nM | – | – |
| O=C(/C=C/c1cccnc1)NCCCCC1CCN(C(=O)c2ccc(C(F)(F)F)cc2)CC1 | > 1000 nM | – | – |
| COc1cc(C(=O)N2CCC(CCCCNC(=O)/C=C/c3cccnc3)CC2)cc(OC)c1OC | 10 nM | – | – |
| COc1cc(OC)c(C(=O)N2CCC(C/C=C/CNC(=O)/C=C/c3cccnc3)CC2)c(OC)c1 | 3 nM | 0.8 nM | IC50 (BXPC-3): 2.8 nM; IC50 (PANC-1 [2]): 0.4 nM |
| COc1cc(OC)c(C(=O)N2CCC(CCCCNC(=O)/C=C/c3cccnc3)CC2)c(OC)c1 | 1 nM | 0.16 nM | Activity (Jurkat [3]): Active; Activity (Jurkat [4]): Active; Activity (Jurkat [5]): inactive; IC50 (BXPC-3): 1.7 nM; IC50 (PANC-1 [2]): 0.9 nM; Activity (Jurkat [6]): inactive |
| O=C(/C=C/c1cccnc1)NCCCCC1CCN(C(=O)c2ccc(CO)cc2)CC1 | 34 nM | – | – |
| O=C(/C=C/c1cccnc1)NCCCCC1CCN(C(=O)C2CCCCO2)CC1 (centres undefined) | 50 nM | – | – |
| COc1ccc(OC)c(C(=O)N2CCC(CCCCNC(=O)/C=C/c3cccnc3)CC2)c1 | 4.3 nM | 3.9 nM | IC50 (BXPC-3): 13 nM; IC50 (PANC-1 [2]): 2.8 nM |
| O=C(/C=C/c1cccnc1)NCCCCC1CCN(C(=O)c2ccccc2)CC1 [DAPORINAD] | 0.6 nM | 2.2 nM | Activity (Jurkat [3]): Active; Activity (Jurkat [4]): Active; IC50 (BXPC-3): 0.3 nM; IC50 (PANC-1 [2]): 0.6 nM |
| O=C(/C=C/c1cccnc1)NCCCCC1CCN(C(=O)Cc2ccccc2)CC1 | 18 nM | – | – |
| COc1cccc(C(=O)N2CCC(CCCCNC(=O)/C=C/c3cccnc3)CC2)c1OC | 3.6 nM | 4.5 nM | Activity (Jurkat [3]): Active; Activity (Jurkat [4]): Active; Activity (Jurkat [5]): inactive; IC50 (BXPC-3): 25 nM; IC50 (PANC-1 [2]): 3.2 nM; Activity (Jurkat [6]): inactive |
| COc1cccc(OC)c1C(=O)N1CCC(CCCCNC(=O)/C=C/c2ccc(F)nc2F)CC1 | 73 nM | 75 nM | IC50 (PANC-1 [2]): 2 nM |
